Consider 55 compounds from patent publication US9718790B2, “Triazine derivative and pharmaceutical composition having an analgesic activity comprising the same” (SHIONOGI & CO., LTD., priority 2010, dated 2017).

One assay deals with human P2X3 receptor (Homo sapiens (Human), UniProt P56373). Kind of assay: Evaluation of human P2X3 receptor inhibitory activity (Fluo-3 calcium fluorescence, FDSS 3000, ATP stimulation).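 Also: stimulus was 50 nM ATP with fluorescence followed for 3 min, and the response per well was peak post-ATP fluorescence divided by the reading at measurement start.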 Format: cell-based. Conditions: C6BU-1 cells stably expressing human P2X3 receptor.
Chain of human P2X3 receptor (P56373 whole entry): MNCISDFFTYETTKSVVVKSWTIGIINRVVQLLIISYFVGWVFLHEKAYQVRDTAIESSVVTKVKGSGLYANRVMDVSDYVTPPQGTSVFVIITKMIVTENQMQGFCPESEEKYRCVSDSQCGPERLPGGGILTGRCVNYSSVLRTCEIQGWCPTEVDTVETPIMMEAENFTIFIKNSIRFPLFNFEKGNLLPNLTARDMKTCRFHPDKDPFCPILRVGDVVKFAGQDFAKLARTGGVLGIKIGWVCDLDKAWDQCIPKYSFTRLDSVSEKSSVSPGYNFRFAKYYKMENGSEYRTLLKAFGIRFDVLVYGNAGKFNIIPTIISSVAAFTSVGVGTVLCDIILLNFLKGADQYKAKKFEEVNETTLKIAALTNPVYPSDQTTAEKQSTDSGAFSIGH
On to `CCn1c(=O)[nH]/c(=N\c2ccc(Oc3ccnc(C(N)=O)c3)cc2)n(CC2CCC3(CC2)CC3)c1=O` [Compound I-2176], for which the IC50 stood at 4 nM.
For the compound `CCCOc1ccc(/N=c2\[nH]c(=O)n([C@H](C)[C@H](C)C(=O)O)c(=O)n2Cc2ccc(C)cc2)cc1` [Compound I-1340], the IC50 is 57 nM.
Take `COC(=O)[C@@H](C)Cn1c(=O)[nH]/c(=N\c2ccc(NC(=O)C(C)C)c(Cl)c2)n(Cc2ccc(C)cc2)c1=O` [Compound I-1419]: the IC50 came out at 304 nM.
Still for that read-out and setting: under `O=C(O)c1cncc(Oc2ccc(/N=c3\[nH]c(=O)n(CC(F)F)c(=O)n3Cc3ccc(Cl)cc3)cc2)c1` [Compound I-2215] stands 6 nM.
Same read-out and setting: under `COC(=O)[C@H](C)[C@H](C)n1c(=O)[nH]/c(=N\c2ccc3oc(C)cc3c2)n(Cc2ccc(Cl)cc2)c1=O` [Compound I-1323] stands 33 nM; under `CC(C)Cc1ccc(/N=c2\[nH]c(=O)n(C[C@H](C)C(=O)O)c(=O)n2Cc2ccc(Cl)cc2)cc1Cl` [Compound I-1372], 5 nM; under `COC(=O)[C@@H](C)Cn1c(=O)[nH]/c(=N\c2ccc(CCO)cc2)n(Cc2ccc(Cl)cc2)c1=O` [Compound I-0657], 471 nM.
With `COC(=O)[C@@H](C)Cn1c(=O)[nH]/c(=N\c2ccc3c(c2)COCO3)n(Cc2ccc(Cl)cc2)c1=O` [Compound I-0744], the IC50 was determined as 53 nM.
In the case of `NC(=O)Cn1c(=O)[nH]/c(=N\c2ccc(Oc3ccnc(O)c3)cc2)n(Cc2ccc(Cl)cc2)c1=O` [Compound I-1977], the IC50 amounted to 5 nM.
The same measure, in the same setting: under `Cc1ccc(Cn2c(=O)n([C@@H](C)[C@@H](C)C(=O)O)c(=O)[nH]/c2=N\c2ccc(OC3CCC3)c(C)c2)cc1` [Compound I-1408] stands 16 nM; under `CC(C)Oc1ccc(/N=c2\[nH]c(=O)n(CCCCC(=O)O)c(=O)n2Cc2ccc(Cl)cc2)cc1Cl` [Compound I-2184], 10 nM; under `O=c1[nH]/c(=N\c2ccc(Oc3cncc(CO)c3)cc2)n(Cc2ccc(Cl)cc2)c(=O)n1CCOC1CCCCO1` (stereo not shown) [Compound I-2077], 3 nM.
Turning to `CC(C)Oc1ccc(/N=c2\[nH]c(=O)n(CCC(=O)NN)c(=O)n2Cc2ccc(Cl)cc2)cc1F` [Compound I-0644, 1-(4-chlorobenzyl)-6-(3-fluoro-4-isopropoxyphenylimino)-3-(2-hydrazinecarbonylethyl)-1,3,5-triazinane-2,4-dion], the IC50 came out at 40 nM.
Turning to `CCCCOc1ccc(/N=c2\[nH]c(=O)n(C[C@H](C)C(=O)O)c(=O)n2Cc2ccc(C)cc2)cc1` [Compound I-0820], the IC50 came out at 35 nM.
Still for that read-out and setting: under `CC(C)Oc1ccc(/N=c2\[nH]c(=O)n(C(C)(C)C(=O)NCCO)c(=O)n2Cc2ccc(Cl)cc2)cc1Cl` [Compound I-0705] stands 11 nM; under `Cc1ccc(Cn2c(=O)n([C@H](C)[C@H](C)C(=O)O)c(=O)[nH]/c2=N\c2ccc3nc(C)sc3c2)cc1` [Compound I-1468], 10 nM.
In the case of `CCOc1ccc(/N=c2\[nH]c(=O)n(C[C@@H](C)C(=O)O)c(=O)n2CC2CCCCC2)cc1Cl` [Compound I-0648], the IC50 is 336 nM.
For the compound `Cc1ccc(Cn2c(=O)n(CCC(=O)O)c(=O)[nH]/c2=N\c2ccc(Oc3ccncc3)cc2)cc1` [Compound I-1228], the IC50 turned out to be 9 nM.
On the same count and under the same terms, under `COC(=O)C(C)(C)Cn1c(=O)[nH]/c(=N\c2ccc(CC(C)C)c(Cl)c2)n(Cc2ccc(C)cc2)c1=O` [Compound I-1447] stands 6 nM; under `CCn1c(=O)[nH]/c(=N\c2ccc(Oc3ccc([N+](=O)[O-])nc3)cc2)n(Cc2ccc(Cl)cc2)c1=O` [Compound I-2172], 1 nM.

Still in this assay, the particulars now being: C6BU-1 cells stably expressing human P2X3 receptor, Fluo-3 fluorescence, FDSS 3000.
`C#Cc1ccc(Cn2c(=O)n(C[C@H](C)C(=O)OC)c(=O)[nH]/c2=N\c2ccc(OC(C)C)c(C)c2)cc1` [Compound I-0945]: the IC50 is 173 nM.
Same read-out and setting: under `CCOC(=O)CCn1c(=O)[nH]/c(=N\c2ccc(Oc3ccc(F)cc3)cc2)n(Cc2ccc(Cl)cc2)c1=O` [Compound I-1872] stands 15 nM; under `C[C@@H](Cn1c(=O)[nH]/c(=N\c2ccc(N3CCCCC3)cc2)n(Cc2ccc(Cl)cc2)c1=O)C(=O)O` [Compound I-0962], 31 nM.
On to `CC(C)=Cc1ccc(/N=c2\[nH]c(=O)n(C[C@H](C)C(=O)O)c(=O)n2Cc2ccc(Cl)cc2)cc1Cl` [Compound I-0959], for which the IC50 was determined as 7 nM.
Still for that read-out and setting: under `Cc1ccc(Cn2c(=O)n([C@@H](C)[C@@H](C)C(=O)O)c(=O)[nH]/c2=N\c2ccc(OCC3CC3)cc2)cc1` [Compound I-0972] stands 38 nM; under `Cc1ccc(Cn2c(=O)n(C[C@H](C)C(=O)O)c(=O)[nH]/c2=N\c2ccc(CC3CCCC3)cc2)cc1` [Compound I-1100], 43 nM.
On the same count and under the same terms, under `COC(=O)Cn1c(=O)[nH]/c(=N\c2ccc(Oc3ccnc(O)c3)cc2)n(Cc2ccc(Cl)cc2)c1=O` [Compound I-1903] stands 4 nM; under `CCOC(=O)C1(Cn2c(=O)[nH]/c(=N\c3ccc(OC(C)C)cc3)n(Cc3ccc(Cl)cc3)c2=O)CC1` [Compound I-0987], 15 nM; under `CCc1oc2ccc(/N=c3\[nH]c(=O)n(CCCC(=O)O)c(=O)n3Cc3ccc(C)cc3)cc2c1C` [Compound I-1630], 15 nM.
With `C[C@H](Oc1ccc(/N=c2\[nH]c(=O)n(C[C@H](C)C(=O)O)c(=O)n2Cc2ccc(Cl)cc2)cc1)C(F)(F)F` [Compound I-0933], the IC50 came to 82 nM.
Consider `Cc1ccc(Cn2c(=O)n(C[C@H](C)C(=O)O)c(=O)[nH]/c2=N\c2ccc(Oc3ccccc3)cc2)cc1` [Compound I-0992], for which the IC50 came to 24 nM.
Still for that read-out and setting: under `COC(=O)CC1(Cn2c(=O)[nH]/c(=N\c3ccc(OC(C)C)c(C)c3)n(Cc3ccc(Cl)cc3)c2=O)CC1` [Compound I-0978] stands 13 nM; under `Cc1cc(/N=c2\[nH]c(=O)n(C[C@H](C)C(=O)O)c(=O)n2Cc2ccc(Cl)cc2)ccc1C#CC1CC1` [Compound I-1042], 148 nM; under `O=C(O)CCn1c(=O)[nH]/c(=N\c2ccc(OCc3cccnc3)cc2)n(Cc2ccc(Cl)cc2)c1=O` [Compound I-1632], 389 nM.
Same read-out and setting: under `CCc1nc2ccc(/N=c3\[nH]c(=O)n(CCCNC(C)=O)c(=O)n3Cc3ccc(Cl)cc3)cc2s1` [Compound I-1613] stands 6 nM; under `CC(C)n1c2c(c3cc(/N=c4\[nH]c(=O)n([C@@H](C)[C@@H](C)C(=O)O)c(=O)n4Cc4ccc(Cl)cc4)ccc31)CCCC2` [Compound I-1770], 788 nM.
On the same count and under the same terms, under `C[C@@H](C(=O)O)[C@H](C)n1c(=O)[nH]/c(=N\c2ccc3c(c2)CCCO3)n(Cc2ccc(Cl)cc2)c1=O` [Compound I-1820] stands 204 nM.
Turning to `C[C@@H](Oc1ccc(/N=c2\[nH]c(=O)n(CCCO)c(=O)n2Cc2ccc(Cl)cc2)cc1)C(F)(F)F` [Compound I-1620], the IC50 is 14 nM.
Turning to `C=Cc1ccc(Cn2c(=O)n(C[C@H](C)C(=O)O)c(=O)[nH]/c2=N\c2ccc(OC(C)C)c(C)c2)cc1` [Compound I-0897, (S)-1-(4-vinylbenzyl)-6-(3-mehyl-4-isopropoxyphenylimino)-3-(2-hydroxycarbonylpropyl)-1,3,5-triazinane-2,4-dion], the IC50 was determined as 25 nM.

Staying with this assay, now noted: human P2X3 receptor, Test Example 1.
Regarding `CCn1c(=O)[nH]/c(=N\c2ccc(Oc3cccc(C(=O)O)n3)cc2)n(Cc2ccc(Cl)cn2)c1=O` [Compound I-2239], the IC50 worked out at 49 nM.
The same measure, in the same setting: under `CC(C)Oc1ccc(/N=c2\[nH]c(=S)n(C(C)C)c(=O)n2Cc2ccc(Cl)cc2)cc1` [Compound I-2254, 1-(4-chlorobenzyl)-3-isopropyl-6-(4-isopropoxyphenylimino)-4-thioxo-1,3,5-triazinane-2-one] stands 78 nM.
As to `CC(=O)Nc1cc(Oc2ccc(/N=c3\[nH]c(=O)n(C)c(=O)n3Cc3ccc(Cl)cc3)cc2)ccn1` [Compound I-2431], the IC50 turned out to be 18 nM.
With `CCn1c(=O)[nH]/c(=N\c2ccc(Oc3ccnc(C#N)n3)cc2)n(Cc2ccc(Cl)cc2)c1=O` [Compound I-2310], the IC50 came to 5 nM.
The same measure, in the same setting: under `CCn1c(=O)[nH]/c(=N\c2ccc(Oc3ccc(NC(C)=O)nc3)cc2)n(Cc2ccc(Cl)cc2)c1=O` [Compound I-2241] stands 1 nM; under `CCCOc1ccc(/N=c2\[nH]c(=O)n(C[C@H](C)C(=O)OC)c(=O)n2Cc2ccc(C)cc2)cc1Cl` [Compound I-0839], 12 nM.
Still for that read-out and setting: under `CC1(C)OC[C@H](Cn2c(=O)[nH]/c(=N\c3ccc(Oc4cncc(F)c4)cc3)n(Cc3ccc(Cl)cc3)c2=O)O1` [Compound I-2333] stands 3 nM; under `COC(=O)CCn1c(=O)[nH]/c(=N\c2ccc(Oc3ccc(C#N)cn3)cc2)n(Cc2ccc(C)cc2)c1=O` [Compound I-2636], 2 nM; under `Cc1cnc(Oc2ccc(/N=c3\[nH]c(=O)n(CCO)c(=O)n3Cc3ccc(Cl)cc3)cc2)s1` [Compound I-2457], 13 nM.
As for `CCn1c(=O)[nH]/c(=N\c2ccc(Oc3ccnc(C#N)c3)cc2)n(Cc2ccc(Cl)cn2)c1=O` [Compound I-2372], the IC50 came to 32 nM.
Take `CO/N=C/c1ccc(/N=c2\[nH]c(=O)n(C[C@H](C)C(=O)OC)c(=O)n2Cc2ccc(Cl)cc2)cc1F` [Compound I-0881, (S)-1-(4-chlorobenzyl)-6-(3-fluoro-4-methoxyiminomethylphenylimino)-3-(2-methoxycarbonylpropyl)-1,3,5-triazinane-2,4-dion]: the IC50 came to 127 nM.
The same measure, in the same setting: under `CCn1c(=O)[nH]/c(=N\c2ccc3nc(O)sc3c2)n(Cc2ccc(Cl)cc2)c1=O` [Compound I-2325] stands 47 nM; under `Cn1c(=O)[nH]/c(=N\c2ccc(Oc3nccc(C(=O)O)n3)cc2)n(Cc2ccc(Cl)cc2)c1=O` [Compound I-2405], 62 nM; under `Cc1nc2ccc(/N=c3\[nH]c(=O)n(CC4(C(=O)O)CC4)c(=O)n3Cc3ccc(Cl)cc3)cc2s1` [Compound I-1552], 15 nM.
As to `Cn1c(=O)[nH]/c(=N\c2ccc(Oc3ccc(C(N)=O)nn3)cc2)n(Cc2ccc(Cl)cc2)c1=O` [Compound I-2379], the IC50 was found to be 9 nM.
Regarding `CCn1c(=O)[nH]/c(=N\c2ccc(Oc3cccc(-c4nnn[nH]4)n3)cc2)n(Cc2ccc(Cl)cc2)c1=O` [Compound I-2602], the IC50 is 2 nM.

The term IC50 denotes the concentration that inhibits the measured activity by half.
